# According to patent US20030228281A1, “Use of mutant herpes viruses and anticancer agents in the treatment of cancer” (priority 2000, published 2003):
# Entries after “also recorded” stand apart in the source; their conditions may differ.
# Assays:
# ribonucleotide reductase = molecular target: T1, ribonucleotide reductase (Homo sapiens, UniProt P23921); test: CDP reductase assay on HCT8 cell extracts incubated with FdUMP; type: biochemical
# T1 construct: 50 mM HEPES (pH 7.2), and 100 μl extract (0.2-0.7 mg protein); endogenous in cells
# T1 sequence (P23921 1-792): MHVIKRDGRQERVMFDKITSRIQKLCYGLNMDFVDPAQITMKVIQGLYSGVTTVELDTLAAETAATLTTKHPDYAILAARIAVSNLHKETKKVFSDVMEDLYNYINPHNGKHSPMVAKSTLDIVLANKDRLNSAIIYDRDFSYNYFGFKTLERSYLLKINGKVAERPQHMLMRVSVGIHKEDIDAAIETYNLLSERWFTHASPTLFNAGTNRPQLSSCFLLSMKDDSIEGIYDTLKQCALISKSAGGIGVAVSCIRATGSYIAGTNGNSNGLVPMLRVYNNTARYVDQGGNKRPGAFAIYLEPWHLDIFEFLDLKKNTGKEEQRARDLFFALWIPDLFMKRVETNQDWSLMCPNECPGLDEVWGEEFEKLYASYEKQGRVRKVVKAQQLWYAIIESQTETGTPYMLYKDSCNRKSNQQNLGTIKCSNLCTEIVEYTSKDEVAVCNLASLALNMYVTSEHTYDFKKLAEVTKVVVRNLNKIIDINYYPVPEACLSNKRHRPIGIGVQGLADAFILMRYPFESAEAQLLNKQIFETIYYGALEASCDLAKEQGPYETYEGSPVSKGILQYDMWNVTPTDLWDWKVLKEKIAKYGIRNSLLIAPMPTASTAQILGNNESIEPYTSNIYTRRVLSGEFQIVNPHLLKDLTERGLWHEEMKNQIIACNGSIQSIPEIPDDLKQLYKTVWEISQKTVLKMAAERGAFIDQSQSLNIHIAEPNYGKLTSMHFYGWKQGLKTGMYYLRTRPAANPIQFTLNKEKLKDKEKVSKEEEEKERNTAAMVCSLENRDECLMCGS
# Method: Cells grown in 250 cm^2-flasks were trypsinized and washed twice in ice-cold PBS. Cells were centrifuged at 300×g for 5 min at 4° C. and resuspended in 3 volumes of Low Salt Extraction Buffer (10 mM HEPES, pH 7.2, 2 mM DTT). Viable cell count of the resuspension was determined by trypan blue exclusion. After 30 min incubation on ice, the cell suspension was drawn 10× through a 28G½ needle. The crude homogenate was centrifuged at 100,000×g for 60 min at 4° C. to remove cellular debris. The supernatant fraction was dialyzed against 1,000 volumes of the Low Salt Extraction Buffer for 4 hours with one buffer change after 2 hours using dialysis cassettes with a molecular weight cut-off of 10,000 (Slide-A-Lyzer Dialysis Cassettes, Pierce, Rockford, Ill.). The dialyzed extract was snap-frozen in liquid nitrogen and stored at −80° C. until analysis. All extraction procedures were performed at 4° C.
# Activity of ribonucleotide reductase was determined by a modified method of Steeper and Stuart (Steeper et al., Anal. Biochem. 34:123-130, 1970). Conversion of CDP to dCDP was monitored using [^14C]CDP (53 mCi/mmol, Movarek Biochemicals, Inc.) as substrate and rattlesnake venom from Crotalus adamanteus (Sigma) to hydrolyze nucleotides to nucleosides. The reaction mixture contained the following concentrations of ingredients in a final volume of 150 μl: 40 μM CDP, 10 μM [^14C]CDP (0.08 μCi), 6 mM DTT, 4 mM magnesium acetate, 2 mM ATP, 50 mM HEPES (pH 7.2), and 100 μl extract (0.2-0.7 mg protein). The enzyme reaction was carried out for 30 min at 37° C. and stopped by incubation at 100° C. for 4 min. Nucleotides were hydrolyzed by adding 50 μl carrier dCMP (6 mM dCMP, 2 mM MgCl2, 6 mM Tris-HCl, pH 8.8) and 25 μl snake venom suspension (50 mg/ml). After 3 hours incubation at 37° C., the reaction mixture was heat-inactivated by boiling for 4 min. Heat-precipitated material was removed by centrifugation at 14,000×g for 10 min at room temperature. [^14C]deoxycytosine was separated from [^14C]cytosine by covalent chromatography using phenylboronic acid-columns (BondElut PBA, Varian, Harbor City, Calif.). Triethenolamine Buffer (pH 10) was added to the supernatant fraction to a final concentration of 0.4 M and 1 ml of this mixture was applied to the column. Fractions were collected and measured for radioactivity by liquid scintillation spectrometry (LS 60001C Liquid Scintillation System, Beckman Instruments, Inc., Fullerton, Calif.). One unit of enzyme activity was defined as conversion of 1 nmol CDP to the product dCDP in 1 hour at 37° C.
# MKN-45-P cells = test: MTT cytotoxicity with Chou-Talalay combination analysis; type: cell-based, human
# Method: (§1) Cytotoxicity assays were performed by plating 1×10^4 cells/well into 96 well assay plates (Costar, Corning Inc., Corning, N.Y.). […] These ratios were determined by estimating the ED50 for each drug in initial experiments and by using these doses to determine the ratio of combination therapy. Percent cell survival for each group (vs. controls) was calculated 5d after treatment using a standard MTT (3-(4,5-dimethylthiazol-2-yl)-2,5-diphenyl-2H tetrazolium bromide) bioassay. A micro-plate reader was used to evaluate for the presence of the MTT-formazan product at 550 nm. Background optical density (OD) was subtracted from the OD readings of all samples. Cell viability was then calculated by dividing the mean absorbance (OD)(n=6) of the treated wells by the mean absorbance (OD)(n=6) of the untreated (control) wells.
# (§2) This method defines the expected additive effect of two agents and then quantifies synergism or antagonism by determining how much the combination effect differs from the expected additive effect. The equations and computer software used for data analysis have been described in detail elsewhere (Chou, T., editors. Academic Press, New York. 61-102, 1991; Chou et al., Advances in Enzyme Regulation 22:27-55, 1984; Chou et al., Manual and Software for IBM-PC 1987; Chou, J., Academic Press, New York 223-244, 1991). The combination index equation is used to precisely analyze two-drug combinations. Interpretation of CI values are defined such that a CI=1 indicates an additive effect, while a CI<1 and a CI>1 indicate synergism and antagonism, respectively. Cytotoxicity data obtained from the experiments described above were used in the Chou-Talalay analysis. […] Based on the actual experimental data, computer software was used to calculate serial CI values over an entire range of effect levels (Fa) from 5-95%. […] Data were also analyzed by the isobologram technique, which is dose-oriented. The axes on an isobologram represent the doses of each drug. For any given Fa value, two points on the x and y axes are chosen that correspond to the doses of each drug necessary to generate that given Fa value. The straight line drawn between these two points corresponds to the possible combination doses that would be required to generate the same Fa value, assuming that the interaction between the two drugs is strictly additive. The observed experimental concentrations actually required to achieve a given Fa value are then added to the plot. If these points lie on the straight line then the effect is additive at that Fa value. If the point lies to the left of the straight line then the effect is synergistic, and if the point lies to the right of the straight line then the effect is antagonistic at that Fa value. Another calculation available using the combination index method is the dose-reduction index (DRI). The DRI is a determination of the fold-dose reduction allowed for each drug when given in synergistic combination, as compared to the concentration of single agent therapy needed to achieve the same effect level. A DRI>1 signifies a favorable reduction in toxicity while still maintaining therapeutic efficacy.
# OCUM-2MD3 cells = test: as above; type: cell-based, human
# Method: as §1, §2
# GADD34 mRNA (OCUM cells) = test: Northern hybridization for GADD34 in cells treated with MMC; type: cell-based, human; details: for Increase in GADD34 band intensity vs negative control: high dose MMC 0.04 μg/cc; for GADD34 band: low dose MMC 0.005 μg/cc
# Method: Cells were cultured with 12 cc culture media containing 0 μg/ml (untreated), 0.005 μg/ml (low dose), or 0.04 μg/ml (high dose) of Mitomycin-C (Bristol Laboratories, Princeton, N.J.). Cells were harvested by trypsinization at 24 and 48 hours. Total RNA was prepared using a total RNA isolation system (Promega, Madison, Wis.) and RNA content was measured by optical density at 260 nm. 7 μg of RNA per sample was loaded in a denaturing 1.2% agarose gel. Electrophoretic separation, RNA transfer to a nitrocellulose membrane (Intergen, Purchase, N.Y.), hybridization (50% formamide at 40° C.), and autoradiographic identification were done by standard techniques. The cDNA clone GADD34 containing a 2.4 kb insert was provided by Dr. A. Fomace, Jr, and the cDNA clone a-actin containing a 1.1 kb insert was acquired from ATCC (Manassas, Va.)(Hollander et al., J. Biol. Chem. 272:13731-13737, 1997). cDNA that had been excised from plasmid vectors was labelled with [^32P]dCTP by the random-primer labelling method (Stratagene, La Jolla, Calif.).
# [1] = test system: OCUM-2MD3 peritoneal tumor; test: Murine xenograft model of gastric carcinomatosis, intraperitoneal treatment; type: in vivo, athymic nude mice; details: 0.1 mg/kg MMC i.p., 4 weeks
# Excerpt: An established murine xenograft model of gastric carcinomatosis was used as previously described (Bennett et al., Journal of Molecular Medicine 78:166-174, 2000; Yashiro et al., Clin. Exp. Metastasis 14:43-54, 1996). Intraperitoneal (i.p.) injection of 2×10^6 OCUM-2MD3 cells reliably develops disseminated peritoneal tumor that seeds the omentum, small and large bowel mesentery, diaphragm, gonadal fat and hepatic hilum. Macroscopic nodules are present within three days after injection, and the development of overwhelming tumor burden, bloody ascites and cachexia occurs by four weeks post-injection. To assess tumor burden, animals were eviscerated at sacrifice and peritoneal tumor was stripped from associated abdominal organs as previously described. Tumor burden was then assessed by weight.
# Animals were all injected i.p. with 2×10^6 OCUM-2MD3 cells and treated 3d later. […] Animals were sacrificed 4 weeks later and tumor burden was assessed as described (Bennett et al., Journal of Molecular Medicine 78:166-174, 2000).
smiles,measurement,setting,value
"O=c1[nH]c(=O)n([C@H]2C[C@H](O)[C@@H](COP(=O)(O)O)O2)cc1F [FdUMP, 2′-deoxy-5-fluorouridine 5′ monophosphate]",Activity,ribonucleotide reductase; 0.001 mM FdUMP,77.0%
same,RR activity,ribonucleotide reductase; 0.001 mM FdUMP,0.47 ± 0.02 nmol dCDP / h
same,inhibition at 1 µM,ribonucleotide reductase; 0.001 mM FdUMP,23%
same,Activity,ribonucleotide reductase; 0.01 mM FdUMP,73.8%
same,RR activity,ribonucleotide reductase; 0.01 mM FdUMP,0.45 ± 0.02 nmol dCDP / h
same,inhibition at 10 µM,ribonucleotide reductase; 0.01 mM FdUMP,26.2%
same,Activity,ribonucleotide reductase; 0.1 mM FdUMP,70.5%
same,RR activity,ribonucleotide reductase; 0.1 mM FdUMP,0.43 ± 0.03 nmol dCDP / h
same,inhibition at 100 µM,ribonucleotide reductase; 0.1 mM FdUMP,29.5%
same,Activity,ribonucleotide reductase; 1 mM FdUMP,39.3%
same,RR activity,ribonucleotide reductase; 1 mM FdUMP,0.24 ± 0.02 nmol dCDP / h
same,RR inhibition in words,ribonucleotide reductase; 1 mM FdUMP,Substantial enzyme inhibition
same,inhibition at 1000 µM,ribonucleotide reductase; 1 mM FdUMP,60.7%
same,RR activity remaining,ribonucleotide reductase; 0.001 to 0.1 mM FdUMP,80 to 70%
same,Activity,ribonucleotide reductase; 10 mM FdUMP,22.9%
same,RR activity,ribonucleotide reductase; 10 mM FdUMP,0.14 ± 0.01 nmol dCDP / h
same,inhibition at 10000 µM,ribonucleotide reductase; 10 mM FdUMP,77.1%
"CO[C@@]12[C@H](COC(N)=O)C3=C(C(=O)C(C)=C(N)C3=O)N1C[C@@H]1N[C@@H]12 [MMC, Mitomycin C]","MMC alone, dose needed to kill fraction affected",MKN-45-P cells; Fa 10%,0.014 ug/cc
same,"MMC alone, dose needed to kill fraction affected",MKN-45-P cells; Fa 20%,0.027 ug/cc
same,"MMC alone, dose needed to kill fraction affected",MKN-45-P cells; Fa 30%,0.040 ug/cc
same,"MMC alone, dose needed to kill fraction affected",MKN-45-P cells; Fa 40%,0.056 ug/cc
same,"MMC alone, dose needed to kill fraction affected",MKN-45-P cells; Fa 50%,0.077 ug/cc
same,"MMC alone, dose needed to kill fraction affected",MKN-45-P cells; Fa 60%,0.105 ug/cc
same,"MMC alone, dose needed to kill fraction affected",MKN-45-P cells; Fa 70%,0.147 ug/cc
same,"MMC alone, dose needed to kill fraction affected",MKN-45-P cells; Fa 80%,0.222 ug/cc
same,"MMC alone, dose needed to kill fraction affected",MKN-45-P cells; Fa 90%,0.413 ug/cc
same,"MMC alone, dose needed to kill fraction affected",MKN-45-P cells; Fa 95%,0.732 ug/cc
same,Dose lowering when given as combination therapy,MKN-45-P cells; combination of MMC and G207,2-9 fold
same,"MMC alone, dose needed to kill fraction affected",OCUM-2MD3 cells; Fa 10%,0.009 ug/cc
same,"MMC alone, dose needed to kill fraction affected",OCUM-2MD3 cells; Fa 20%,0.014 ug/cc
same,"MMC alone, dose needed to kill fraction affected",OCUM-2MD3 cells; Fa 30%,0.017 ug/cc
same,"MMC alone, dose needed to kill fraction affected",OCUM-2MD3 cells; Fa 40%,0.021 ug/cc
same,"MMC alone, dose needed to kill fraction affected",OCUM-2MD3 cells; Fa 50%,0.026 ug/cc
same,"MMC alone, dose needed to kill fraction affected",OCUM-2MD3 cells; Fa 60%,0.031 ug/cc
same,"MMC alone, dose needed to kill fraction affected",OCUM-2MD3 cells; Fa 70%,0.038 ug/cc
same,"MMC alone, dose needed to kill fraction affected",OCUM-2MD3 cells; Fa 80%,0.048 ug/cc
same,"MMC alone, dose needed to kill fraction affected",OCUM-2MD3 cells; Fa 90%,0.070 ug/cc
same,"MMC alone, dose needed to kill fraction affected",OCUM-2MD3 cells; Fa 95%,0.100 ug/cc
same,Increase in GADD34 band intensity vs negative control,GADD34 mRNA (OCUM cells); 24 hours,2.49 fold
same,Increase in GADD34 band intensity vs negative control,GADD34 mRNA (OCUM cells); 48 hours,3.21 fold
same,GADD34 band,GADD34 mRNA (OCUM cells); 24 hours,did not result in upregulation
same,GADD34 band,"GADD34 mRNA (OCUM cells); 24 hours, listed as Mitomycin C",did not show any band
same,GADD34 band,GADD34 mRNA (OCUM cells); 48 hours,"did not show any GADD34,band; also recorded: failed to demonstrate the presence of GADD34 mRNA"
same,Mean peritoneal tumor burden (±SEM),[1],1490 (±310) mg
